Data on 12 molecules can be found in patent US10160762B2, “6-alkyl dihydropyrazolopyrimidinone compounds as PDE2 inhibitors” (Merck Sharp & Dohme Corp., priority 2015, dated 2018).

The test deals with T1, Rhesus PDE2A3 (Macaca mulatta, UniProt B3VTJ2).
T1 construct: made in house; host or cells: AD293 cells, transient transfection; supernatant of sonicated lysate
T1 sequence (B3VTJ2 1-941): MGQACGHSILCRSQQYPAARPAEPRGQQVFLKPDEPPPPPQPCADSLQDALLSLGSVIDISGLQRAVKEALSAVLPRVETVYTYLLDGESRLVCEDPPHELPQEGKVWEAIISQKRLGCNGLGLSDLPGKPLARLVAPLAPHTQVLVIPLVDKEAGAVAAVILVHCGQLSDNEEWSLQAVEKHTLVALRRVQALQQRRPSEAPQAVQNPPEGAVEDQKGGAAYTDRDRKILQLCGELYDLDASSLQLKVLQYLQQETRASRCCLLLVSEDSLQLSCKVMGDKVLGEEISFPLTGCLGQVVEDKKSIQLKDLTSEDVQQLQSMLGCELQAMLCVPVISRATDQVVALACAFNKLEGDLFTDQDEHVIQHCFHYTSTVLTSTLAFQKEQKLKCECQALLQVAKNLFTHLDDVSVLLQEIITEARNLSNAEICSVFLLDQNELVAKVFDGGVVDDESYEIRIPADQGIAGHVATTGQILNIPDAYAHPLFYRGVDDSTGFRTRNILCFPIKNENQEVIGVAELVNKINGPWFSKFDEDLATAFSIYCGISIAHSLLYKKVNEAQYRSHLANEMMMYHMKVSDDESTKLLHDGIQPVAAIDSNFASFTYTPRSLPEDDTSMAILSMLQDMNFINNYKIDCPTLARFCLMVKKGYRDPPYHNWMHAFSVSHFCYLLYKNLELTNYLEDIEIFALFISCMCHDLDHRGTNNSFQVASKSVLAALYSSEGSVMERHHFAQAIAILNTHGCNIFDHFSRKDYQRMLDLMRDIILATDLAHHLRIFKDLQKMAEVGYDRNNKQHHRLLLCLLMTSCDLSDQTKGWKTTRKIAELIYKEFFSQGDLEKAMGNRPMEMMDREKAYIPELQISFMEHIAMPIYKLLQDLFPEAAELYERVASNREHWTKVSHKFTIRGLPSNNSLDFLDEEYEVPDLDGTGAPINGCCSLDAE
The test can be described thus: PDE2 fluorescence polarization (IMAP FP) inhibition assay, rhesus PDE2A3. The test is classed as biochemical, rhesus macaque. To be noted: Lab B; read-out: Rhesus PDE2 Ki (nM) Lab B. Summed up: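 Enzyme source was the lysate supernatant of AD293 cells transiently expressing rhesus PDE2A3, diluted to give 20% conversion of 50 nM FAM-cAMP, with 1 µM cGMP as activator. Buffer was 10 mM Tris pH 7.2, 10 mM MgCl2, 1 mM DTT.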
On the technique in general: In fluorescence polarisation assays a small probe gives low polarisation when free and higher when bound to something large.

Broadly, the Ki is a dissociation constant, usually derived from enzyme kinetics or from competition with a known ligand.

On to `Cc1nc2c(c(CC#N)nn2C(C)c2ccc(C(F)(F)F)cc2)c(=O)[nH]1` (single isomer, unassigned) [Example 280], for which the Ki amounted to 71 nM.
As for `Cc1nc2c(c(CC(F)F)nn2C(C)c2ccc(C(F)(F)F)cc2)c(=O)[nH]1` (single isomer, unassigned) [Example 286], the inhibition constant (Ki) was found to be 3.7 nM.
Next, `Cc1nc2c(c(CO)nn2C(c2ccc(OC(F)(F)F)cc2)C(C)C)c(=O)[nH]1` (single isomer, unassigned) [Example 85, (S)- or (R)-3-(Hydroxymethyl)-6-methyl-1-(2-methyl-1-(4-(trifluoromethoxy)phenyl)propyl)-1H-pyrazolo[3,4-d]pyrimidin-4(5H)-one]: 0.91 nM; `Cc1nc2c(c(CO)nn2C(c2ccc(C(F)(F)F)c(F)c2)C2CC2)c(=O)[nH]1` (single isomer, unassigned) [Example 91, (S)- or (R)-1-(Cyclopropyl(3-fluoro-4-(trifluoromethyl)phenyl)methyl)-3-(hydroxymethyl)-6-methyl-1H-pyrazolo[3,4-d]pyrimidin-4(5H)-one]: 1 nM.
Turning to `Cc1nc2c(c(CCO)nn2C(C)c2ccc(C(F)(F)F)cc2)c(=O)[nH]1` (single isomer, unassigned) [Example 250], the Ki was 2 nM.
For the molecule `COc1ccc(Cc2nc3c(c(CF)nn3C(C)c3ccc(C(F)(F)F)cc3)c(=O)[nH]2)cc1` (single isomer, unassigned) [Example 219, (S)- or (R)-3-(Fluoromethyl)-6-(4-methoxybenzyl)-1-(1-(4-(trifluoromethyl)phenyl)ethyl)-1H-pyrazolo[3,4-d]pyrimidin-4(5H)-one], the Ki was 0.87 nM.
With `CC(c1ccc(C(F)(F)F)cc1)n1nc(CO)c2c(=O)[nH]c(C(F)F)nc21` (stereo not drawn) [Example 284, 6-(Difluoromethyl)-3-(hydroxymethyl)-1-(1-(4-(trifluoromethyl)phenyl)ethyl)-1H-pyrazolo[3,4-d]pyrimidin-4(5H)-one], the Ki was found to be 69 nM.
For the molecule `Cc1nc2c(c(CC(F)(F)F)nn2C(c2ccc(C(F)(F)F)cc2)C2(C)CC2)c(=O)[nH]1` (single isomer, unassigned) [Example 59, (S)- or (R)-6-Methyl-1-((1-methylcyclopropyl)(4-(trifluoromethyl)phenyl)methyl)-3-(2,2,2-trifluoroethyl)-1H-pyrazolo[3,4-d]pyrimidin-4(5H)-one], the inhibition constant (Ki) turned out to be 22 nM.
As for `COCc1nn(C(C)c2ccc(C(F)(F)F)cc2)c2nc(C)[nH]c(=O)c12` (single isomer, unassigned) [Example 279], the Ki is 24 nM.
Next, `Cc1nc2c(c(CO)nn2C(c2ccc(C(C)(C)C)cc2)C2CC2)c(=O)[nH]1` (single isomer, unassigned) [Example 89, (S)- or (R)-1-((4-tert-Butylphenyl)(cyclopropyl)methyl)-3-(hydroxymethyl)-6-methyl-1H-pyrazolo[3,4-d]pyrimidin-4(5H)-one]: 0.48 nM; `Cc1nc2c(c(CO)nn2C(C)c2ccc(C(F)(F)F)cc2Cl)c(=O)[nH]1` (single isomer, unassigned) [Example 19, (S)- or (R)-1-(1-(2-Chloro-4-(trifluoromethyl)phenyl)ethyl)-3-(hydroxymethyl)-6-methyl-1H-pyrazolo[3,4-d]pyrimidin-4(5H)-one]: 1.9 nM.
Turning to `Cc1nc2c(c(CO)nn2C(c2ccc(C(F)(F)F)cc2)C(C)(C)C)c(=O)[nH]1` (single isomer, unassigned) [Example 83, (S)- or (R)-1-(2,2-Dimethyl-1-(4-(trifluoromethyl)phenyl)-propyl)-3-(hydroxymethyl)-6-methyl-1H-pyrazolo[3,4-d]pyrimidin-4(5H)-one], the Ki was 9.4 nM.
